The source of these data is the NIST ThermoML archive (doi:10.1016/j.jct.2013.07.026).

In general, vapor or sublimation pressure refers to the equilibrium pressure above the liquid or solid.

The conditions of data set [1]: Crystal, Calculated from knudsen effusion weight loss.
Data set [2] in a line: molar enthalpy of vaporization or sublimation. To be noted: 298.15 K; Crystal; Static calorimetry.

SMILES strings stand for the structures. Several values for one entry are separate records, joined by “and”; a condition that tells them apart may be missing. Equal values may be shown once. Numbers after ± are expanded uncertainties.

With `O=C(CCl)c1ccc(Cl)cc1` [2,4'-dichloroacetophenone], the “vapor or sublimation pressure” value in data set [1] (301.2 K) was 8.5e-05 ± 4e-06 kPa and 7.6e-05 ± 4e-06 kPa and 7.9e-05 ± 4e-06 kPa; in data set [1] (303.19 K) it was 9.9e-05 ± 5e-06 kPa and 0.000105 ± 5e-06 kPa and 0.000103 ± 5e-06 kPa; in data set [1] (305.1 K) it was 0.000133 ± 7e-06 kPa and 0.000131 ± 7e-06 kPa and 0.000134 ± 7e-06 kPa; in data set [1] (307.19 K), 0.000165 ± 8e-06 kPa and 0.000178 ± 9e-06 kPa; in data set [1] (309.18 K), 0.000218 ± 1.1e-05 kPa and 0.000214 ± 1.1e-05 kPa and 0.000221 ± 1.1e-05 kPa; in data set [1] (311.1 K), 0.00027 ± 1.4e-05 kPa and 0.000271 ± 1.4e-05 kPa and 0.000278 ± 1.4e-05 kPa. In addition, the “vapor or sublimation pressure” value was 0.000344 ± 1.7e-05 kPa and 0.000341 ± 1.7e-05 kPa and 0.000359 ± 1.8e-05 kPa in data set [1] (313.19 K); 0.000447 ± 2.2e-05 kPa and 0.000437 ± 2.2e-05 kPa and 0.000448 ± 2.2e-05 kPa in data set [1] (315.19 K); 0.000561 ± 2.8e-05 kPa and 0.000553 ± 2.8e-05 kPa and 0.000562 ± 2.8e-05 kPa in data set [1] (317.1 K); 0.000699 ± 3.5e-05 kPa and 0.000686 ± 3.4e-05 kPa and 0.000757 ± 3.8e-05 kPa in data set [1] (319.18 K); 0.000903 ± 4.5e-05 kPa and 0.000911 ± 4.6e-05 kPa and 0.000875 ± 4.4e-05 kPa in data set [1] (321.15 K); 0.001131 ± 0.00012 kPa and 0.001115 ± 0.00011 kPa and 0.001107 ± 0.00011 kPa in data set [1] (323.09 K).

Turning to `O=C(CCl)c1ccccc1` [2-chloroacetophenone], in data set [2], the molar enthalpy is 21 ± 0.406 kcal/mol.
